Source: patent publication US11866431B2, “Bicyclic compounds” (Vivace Therapeutics, Inc., priority 2018, dated 2024)

Tested on: 8XTBD luciferase reporter (YAP reporter) in HEK293T cells
Test: YAP Reporter Assay
Assay type: cell-based
Details: Homo sapiens, HEK-293T; HEK293T cells stably transfected with 8XTBD luciferase reporter and pRLTK; 24-hr incubation; top concentration 3 μM; read-out: Firefly Luciferase IC50
Description: HEK293T cells stably transfected with 8XTBD luciferase reporter and pRLTK in 384-well plates were treated with the test compounds, starting from 3 μM (final concentration in assay plate), 1:3 dilution, and 10 points in quadruplicates. Post 24-hr incubation with compounds at 37° C. and 5% CO2, cells were lysed and 8XTBD-driven firefly luciferase and control TK-driven renilla luciferase activities were measured using Promega Dual-Luciferase Reporter Assay System.
Reagents: The reagents used for this study are: DMEM: Invitrogen #11960077, Dual-Glo Luciferase Assay System: Promega-E2980, Puromycin Dihydrochloride: Invitrogen-A1113803, 384-well plate: PerkinElmer-6007480, L-GLUTAMINE: Invitrogen-25030164, Hygromycin B: Invitrogen-10687010, and Penicillin-Streptomycin: Merk-TMS-AB2-C
Media: The media used for this assay were: Culture Medium: DMEM+1 ug/mL puromycin+200 ug/mL hygromycin (with 10% FBS+1 mM L-glutamine); and Assay Medium: DMEM (with 10% FBS+1 mM L-glutamine+1×P/S).
Cell Plating: The appropriate media was warmed at 37° C. by water bath: Culture Medium, Assay Medium, 1*D-PBS, 0.05% trypsin-EDTA. The cells were trypsinized after removing all media, then washed with 1*sterile D-PBS and then with 2 ml 0.05% trypsin-EDTA. The cells were then incubated at RT for one minute. Then 10 ml/75 cm2 flask Assay Medium was added to each flask. Using a 10 ml pipette, the cells were then gently resuspended in the media, until the clumps completely disappeared. The cells were then transferred into 50 ml centrifuge tubes and were centrifuged at 800 rpm for 5 mins. The medium was removed and the cells were resuspended with Assay Medium. An aliquot of cells was used to count the cell density (cells/ml). The cell suspension was then diluted with Assay Medium to a concentration of 6×10^4 cells/ml. 50 ul cells suspension was then plated to 384-well plate (PerkinElmer-6007480), 3×10^3 cells/well and the cells were incubated in an incubator at 37° C. 5% CO2.
Compound Treatment: In the afternoon (incubation of the plate with 3-4 hrs), the test compounds were added by Echo, starting from 3 uM (final concentration in the assay plate), 1:3 dilution, 10 points, quadruplicates. The plate was placed at 37° C. 5% CO2 incubator for 24 hrs.
Detection: The Dual-Glo Luciferase Reagent was prepared by transferring the contents of one bottle of Dual-Glo Luciferase Buffer to one bottle of Dual-Glo Luciferase Substrate to create the Dual-Glo Luciferase Reagent. Mixing was performed by inversion until the substrate was thoroughly dissolved. After mixing, the reagent was aliquoted into 15 ml tubes. In the afternoon (24 hrs post compound treatment), the DMEM+ medium in the 384 well plates were aspirated by Microplate Washer.
Measuring firefly luciferase activity: 20 ul Dual-Glo Luciferase Reagent was added to the 384-well plates. The plates were protected from light to prevent interference with the assay. The plates were shaken for 1 min followed centrifuging plates at 1000 rpm for 30 seconds. After waiting at least 10 minutes, the firefly luminescence was measured by Envision.
Measuring renilla luciferase activity: 20 ul Stop-Glo Reagent was added to the 384-well plates. The plates were shaken for 1 min and then centrifuged at 1000 rpm for 30 seconds. After waiting at least 10 minutes, the renilla luminescence was measured by Envision.
Compound IC50 and maximum inhibition on the firefly luciferase and renilla luciferase activities were reported separately.

SMILES	IC50
CN(C#N)CCNC(=O)c1ccc2c(-c3ccc(C(F)(F)F)cc3)cccc2c1 [Compound 125, N-(2-(N-methylcyanamido)ethyl)-5-(4-(trifluoromethyl)phenyl)-2-naphthamide]	< 100 nM
CC(C)NC(=O)c1ccc2c(-c3ccc(C(F)(F)F)cc3)cc(NS(C)(=O)=O)cc2c1 [Compound 52, N-isopropyl-7-(methylsulfonamido)-5-(4-(trifluoromethyl)phenyl)-2-naphthamide]	< 100 nM
C[C@H](NC(=O)c1ccc2c(-c3ccc(C(F)(F)F)cc3)cccc2c1)C1COC1 [Compound 269, (S)—N-(1-(oxetan-3-yl)ethyl)-5-(4-(trifluoromethyl)phenyl)-2-naphthamide]	< 100 nM
C[C@@H](NC(=O)c1ccc2c(-c3ccc(C(F)(F)F)cc3)cccc2c1)C1CNC1 [Compound 203, (R)—N-(1-(azetidin-3-yl)ethyl)-5-(4-(trifluoromethyl)phenyl)-2-naphthamide]	< 100 nM
O=C(NCc1ccnc(CF)n1)c1ccc2c(-c3ccc(C(F)(F)F)cc3)cccc2c1 [Compound 170, N-((2-(fluoromethyl)pyrimidin-4-yl)methyl)-5-(4-(trifluoromethyl)phenyl)-2-naphthamide]	< 100 nM
CC(NC(=O)c1ccc2c(-c3ccc(C(F)(F)F)cc3)cccc2c1)c1cc(Br)ccn1 (stereo not shown) [Compound 225, N-(1-(4-bromopyridin-2-yl)ethyl)-5-(4-(trifluoromethyl)phenyl)-2-naphthamide]	< 100 nM
C[C@H](NC(=O)c1ccc2c(-c3ccc(C(F)(F)F)cc3)cccc2c1)C1CCC1 [Compound 251, (S)—N-(1-cyclobutylethyl)-5-(4-(trifluoromethyl)phenyl)-2-naphthamide]	100 to 1000 nM
CC(C)NC(=O)c1ccc2c(-c3ccc(C(F)(F)F)cc3)cc([S+](C)[O-])cc2c1 (stereo not shown) [Compound 45, N-isopropyl-7-methylsulfinyl-5-[4-(trifluoromethyl)phenyl]naphthalene-2-carboxamide]	100 to 1000 nM
COCCOCCNC(=O)c1ccc2c(-c3ccc(C(F)(F)F)cc3)cccc2c1 [Compound 57, N-(2-(2-methoxyethoxy)ethyl)-5-(4-(trifluoromethyl)phenyl)-2-naphthamide]	100 to 1000 nM
C[C@@H](NC(=O)c1cnc2c(-c3ccc(C(F)(F)F)cc3)cccc2c1)C1(O)CNC1 [Compound 141, (R)—N-(1-(3-hydroxyazetidin-3-yl)ethyl)-8-(4-(trifluoromethyl)phenyl)quinoline-3-carboxamide]	1000 to 3000 nM
O=C(O)c1cnc2c(-c3ccc(C(F)(F)F)cc3)cc(F)c(F)c2c1 [Compound 328, 5,6-difluoro-8-(4-(trifluoromethyl)phenyl)quinoline-3-carboxylic Acid]	< 100 nM
C[C@@H](NC(=O)c1ccc2c(-c3ccc(C(F)(F)F)cc3)cccc2c1)c1cccc(N)n1 [Compound 129, (R)—N-(1-(6-aminopyridin-2-yl)ethyl)-5-(4-(trifluoromethyl)phenyl)-2-naphthamide]	< 100 nM
C[C@@H](CN1CCCC1)NC(=O)c1ccc2c(-c3ccc(C(F)(F)F)cc3)cccc2c1 [Compound 66, (S)—N-(1-(pyrrolidin-1-yl)propan-2-yl)-5-(4-(trifluoromethyl)phenyl)-2-naphthamide]	100 to 1000 nM
O=C(NC(CO)Cc1ccccn1)c1ccc2c(-c3ccc(C(F)(F)F)cc3)cccc2c1 (stereo not shown) [Compound 197, N-(1-hydroxy-3-(pyridin-2-yl)propan-2-yl)-5-(4-(trifluoromethyl)phenyl)-2-naphthamide]	100 to 1000 nM
CS(=O)(=O)NC(=O)c1cnc2c(-c3ccc(C(F)(F)F)cc3)cc(OC3CC3)cc2c1 [Compound 122, 6-cyclopropoxy-N-(methylsulfonyl)-8-(4-(trifluoromethyl)phenyl)quinoline-3-carboxamide]	100 to 1000 nM
C[C@@H](NC(=O)c1ccc2c(-c3ccc(C(F)(F)F)cc3)cccc2c1)C1CC1 [Compound 290, (R)—N-(1-cyclopropylethyl)-5-(4-(trifluoromethyl)phenyl)-2-naphthamide]	< 100 nM

SMILES	IC50
COC[C@H](C)NC(=O)c1ccc2c(-c3ccc(C(F)(F)F)cc3)cccc2c1 [Compound 89, (S)—N-(1-methoxypropan-2-yl)-5-(4-(trifluoromethyl)phenyl)-2-naphthamide]	< 100 nM
COc1cccc(CNC(=O)c2ccc3c(-c4ccc(C(F)(F)F)cc4)cccc3c2)c1 [Compound 240, N-(3-methoxybenzyl)-5-(4-(trifluoromethyl)phenyl)-2-naphthamide]	100 to 1000 nM
O=C(NCc1ccncn1)c1ccc2c(-c3ccc(C(F)(F)F)cc3)cccc2c1 [Compound 185, N-(pyrimidin-4-ylmethyl)-5-(4-(trifluoromethyl)phenyl)-2-naphthamide]	< 100 nM
O=C(O)c1cnc2c(-c3ccc(C(F)(F)F)cc3)cc(OC3CC3)cc2c1 [Compound 323, 6-cyclopropoxy-8-(4-(trifluoromethyl)phenyl)quinoline-3-carboxylic acid]	< 100 nM
C[C@H](NC(=O)c1ccc2c(-c3ccc(C(F)(F)F)cc3)cccc2c1)C1CC1 [Compound 289, (S)—N-(1-cyclopropylethyl)-5-(4-(trifluoromethyl)phenyl)-2-naphthamide]	< 100 nM
CCS(=O)(=O)NC(=O)c1ccc2c(-c3ccc(C(F)(F)F)cc3)cccc2c1 [Compound 78, N-(ethylsulfonyl)-5-(4-(trifluoromethyl)phenyl)-2-naphthamide]	100 to 1000 nM
COc1cc(-c2ccc(C(F)(F)F)cc2)c2ccc(C(=O)N[C@@H](C)CO)cc2c1 [Compound 296, (S)—N-(1-Hydroxypropan-2-yl)-7-methoxy-5-(4-(trifluoromethyl)phenyl)-2-naphthamide]	< 100 nM
CS(=O)(=O)NC(=O)c1cnc2c(-c3ccc(C(F)(F)F)cc3)cc(F)c(F)c2c1 [Compound 73, 5,6-Difluoro-N-(methylsulfonyl)-8-(4-(trifluoromethyl)phenyl)quinoline-3-carboxamide]	100 to 1000 nM
C[C@H](NC(=O)c1ccc2c(-c3ccc(C(F)(F)F)cc3)cccc2c1)c1cc(N(C)C)ccn1 [Compound 224, (S)—N-(1-(4-(dimethylamino)pyridin-2-yl)ethyl)-5-(4-(trifluoromethyl)phenyl)-2-naphthamide]	1000 to 3000 nM
COc1cc(-c2ccc(C(F)(F)F)cc2)c2ncc(C(=O)N[C@@H](C)c3ccccn3)cc2c1 [Compound 108, 6-methoxy-N-[(1S)-1-(2-pyridyl)ethyl]-8-[4-(trifluoromethyl)phenyl]quinoline-3-carboxamide]	< 100 nM
CC(C)NC(=O)c1ccc2c(-c3ccc(C(F)(F)F)cc3)cc(Cl)c(N)c2c1 [Compound 33, 8-amino-7-chloro-N-isopropyl-5-(4-(trifluoromethyl)phenyl)-2-naphthamide]	< 100 nM
C[C@@H](NC(=O)c1ccc2c(-c3ccc(C(F)(F)F)cc3)cccc2c1)c1ccccn1 [Compound 91, (R)—N-(1-(pyridin-2-yl)ethyl)-5-(4-(trifluoromethyl)phenyl)-2-naphthamide]	100 to 1000 nM
O=C(NC1(c2ccccc2)COC1)c1ccc2c(-c3ccc(C(F)(F)F)cc3)cccc2c1 [Compound 288, N-(3-phenyloxetan-3-yl)-5-(4-(trifluoromethyl)phenyl)-2-naphthamide]	< 100 nM
CC(C)NC(=O)c1ccc2c(-c3ccc(C(F)(F)F)cc3)ccc(C3CC3)c2c1 [Compound 22, 8-cyclopropyl-N-isopropyl-5-(4-(trifluoromethyl)phenyl)-2-naphthamide]	< 100 nM
C[C@H](NC(=O)c1ccc2c(-c3ccc(C(F)(F)F)cc3)cccc2c1)c1cccc2nc[nH]c12 [Compound 174, N-[(1S)-1-(3H-benzimidazol-4-yl)ethyl]-5-[4-(trifluoromethyl)phenyl]naphthalene-2-carboxamide]	< 100 nM
